The source of these data is patent US20220306728A1 (priority 2019, published 2022).

Holding throughout (experiment): microbe, parasite or virus in culture
Assay [1] has as its system H3N2 and H1N1 strains. It counts as cell-based, influenza A virus.
The subject of assay [2] is H1N1 virus. It counts as cell-based. The note with it: Influenza A virus, H1N1, MDCK.
The subject of assay [3] is H3N2 virus. It counts as cell-based. The settings on record: Influenza A virus, H3N2, MDCK.

The structures appear in SMILES notation. Read-outs that look alike come from different tables or passages of the source.

Take `CC(=O)N[C@H]1[C@H]([C@H](O)[C@H](O)CO)OC(C(=O)O)=C[C@@H]1N=C(N)N` [zanamivir, reference compound]: in assay [1] (Influenza A virus, MDCK), the half-inhibitory concentration (IC50) (usually the concentration that inhibits the measured activity by half) is 10.7 to 13.7 nM.

Turning to `COC(=O)OCOc1c2n(ccc1=O)N([C@@H]1c3ccccc3SCc3c1ccc(F)c3F)[C@@H]1COCCN1C2=O` [baloxavir marboxil, reference compound], in assay [1] (read-out: IC50), the IC50 lay within 2.3 to 4.9 nM.

Regarding `CCOC(=O)C1=C[C@@H](OC(CC)CC)[C@H](NC(C)=O)[C@@H](N)C1` [oseltamivir], the IC50 in assay [2] was found to be 9.1 nM; in assay [3], 7 nM.
